# Laboratory results reported in PubChem BioAssay (NCI).
#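 The compound was tested at five concentrations on cells cultured in 96-well plates, with a 48-hour exposure period. TGI: total growth inhibition.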
# What was measured:
# Experiment in all cases: NCI tumour cell line growth inhibition, 48 h
# 786-0 renal = test system: 786-0 renal
# A498 renal = test system: A498 renal
# A549 NSCLC = test system: A549 NSCLC
# ACHN renal = test system: ACHN renal
# BT-549 breast = test system: BT-549 breast
# CAKI-1 renal = test system: CAKI-1 renal
# CCRF-CEM leukemia = test system: CCRF-CEM leukemia
# COLO 205 colon = test system: COLO 205 colon
# DU-145 prostate = test system: DU-145 prostate
# EKVX NSCLC = test system: EKVX NSCLC
# HCC-2998 colon = test system: HCC-2998 colon
# HCT-116 colon = test system: HCT-116 colon
# HCT-15 colon = test system: HCT-15 colon
# HL-60(TB) leukemia = test system: HL-60(TB) leukemia
# HOP-62 NSCLC = test system: HOP-62 NSCLC
# HS 578T breast = test system: HS 578T breast
# HT29 colon = test system: HT29 colon
# IGROV1 ovarian = test system: IGROV1 ovarian
# K-562 leukemia = test system: K-562 leukemia
# KM12 colon = test system: KM12 colon
# LOX IMVI melanoma = test system: LOX IMVI melanoma
# M14 melanoma = test system: M14 melanoma
# MALME-3M melanoma = test system: MALME-3M melanoma
# MCF7 breast = test system: MCF7 breast
# MDA-MB-231 breast = test system: MDA-MB-231 breast
# MDA-MB-435 = test system: MDA-MB-435
# MDA-N = test system: MDA-N
# MOLT-4 leukemia = test system: MOLT-4 leukemia
# NCI-H226 lung = test system: NCI-H226 lung
# NCI-H23 lung = test system: NCI-H23 lung
# NCI-H460 lung = test system: NCI-H460 lung
# NCI-H522 lung = test system: NCI-H522 lung
# NCI/ADR-RES ovarian = test system: NCI/ADR-RES ovarian
# OVCAR-3 ovarian = test system: OVCAR-3 ovarian
# OVCAR-4 ovarian = test system: OVCAR-4 ovarian
# OVCAR-5 ovarian = test system: OVCAR-5 ovarian
# OVCAR-8 ovarian = test system: OVCAR-8 ovarian
# PC-3 prostate = test system: PC-3 prostate
# RPMI-8226 leukemia = test system: RPMI-8226 leukemia
# RXF 393 renal = test system: RXF 393 renal
# SF-268 CNS = test system: SF-268 CNS
# SF-295 CNS = test system: SF-295 CNS
# SF-539 CNS = test system: SF-539 CNS
# SK-MEL-2 melanoma = test system: SK-MEL-2 melanoma
# SK-MEL-28 melanoma = test system: SK-MEL-28 melanoma
# SK-MEL-5 melanoma = test system: SK-MEL-5 melanoma
# SK-OV-3 ovarian = test system: SK-OV-3 ovarian
# SN12C renal = test system: SN12C renal
# SNB-19 CNS = test system: SNB-19 CNS
# SNB-75 CNS = test system: SNB-75 CNS
# SR leukemia = test system: SR leukemia
# SW-620 colon = test system: SW-620 colon
# T-47D breast = test system: T-47D breast
# TK-10 renal = test system: TK-10 renal
# U251 CNS = test system: U251 CNS
# UACC-257 melanoma = test system: UACC-257 melanoma
# UACC-62 melanoma = test system: UACC-62 melanoma
# UO-31 renal = test system: UO-31 renal
# HOP-92 NSCLC = test system: HOP-92 NSCLC
compound,measurement,setting,value
C=CCN1C(=O)CS/C1=N\NC(=O)CSc1nc2ccccc2c(=O)n1CC,TGI,786-0 renal,> 100 µM
same,TGI,A498 renal,> 100 µM
same,TGI,A549 NSCLC,> 100 µM
same,TGI,ACHN renal,> 100 µM
same,TGI,BT-549 breast,> 100 µM
same,TGI,CAKI-1 renal,> 100 µM
same,TGI,CCRF-CEM leukemia,> 100 µM
same,TGI,COLO 205 colon,> 100 µM
same,TGI,DU-145 prostate,> 100 µM
same,TGI,EKVX NSCLC,> 100 µM
same,TGI,HCC-2998 colon,> 100 µM
same,TGI,HCT-116 colon,> 100 µM
same,TGI,HCT-15 colon,> 100 µM
same,TGI,HL-60(TB) leukemia,> 100 µM
same,TGI,HOP-62 NSCLC,> 100 µM
same,TGI,HS 578T breast,> 100 µM
same,TGI,HT29 colon,> 100 µM
same,TGI,IGROV1 ovarian,> 100 µM
same,TGI,K-562 leukemia,> 100 µM
same,TGI,KM12 colon,> 100 µM
same,TGI,LOX IMVI melanoma,> 100 µM
same,TGI,M14 melanoma,> 100 µM
same,TGI,MALME-3M melanoma,> 100 µM
same,TGI,MCF7 breast,> 100 µM
same,TGI,MDA-MB-231 breast,> 100 µM
same,TGI,MDA-MB-435,> 100 µM
same,TGI,MDA-N,> 100 µM
same,TGI,MOLT-4 leukemia,> 100 µM
same,TGI,NCI-H226 lung,> 100 µM
same,TGI,NCI-H23 lung,> 100 µM
same,TGI,NCI-H460 lung,44.4 µM
same,TGI,NCI-H522 lung,> 100 µM
same,TGI,NCI/ADR-RES ovarian,> 100 µM
same,TGI,OVCAR-3 ovarian,> 100 µM
same,TGI,OVCAR-4 ovarian,> 100 µM
same,TGI,OVCAR-5 ovarian,> 100 µM
same,TGI,OVCAR-8 ovarian,> 100 µM
same,TGI,PC-3 prostate,> 100 µM
same,TGI,RPMI-8226 leukemia,> 100 µM
same,TGI,RXF 393 renal,> 100 µM
same,TGI,SF-268 CNS,> 100 µM
same,TGI,SF-295 CNS,> 100 µM
same,TGI,SF-539 CNS,> 100 µM
same,TGI,SK-MEL-2 melanoma,> 100 µM
same,TGI,SK-MEL-28 melanoma,> 100 µM
same,TGI,SK-MEL-5 melanoma,> 100 µM
same,TGI,SK-OV-3 ovarian,> 100 µM
same,TGI,SN12C renal,> 100 µM
same,TGI,SNB-19 CNS,> 100 µM
same,TGI,SNB-75 CNS,> 100 µM
same,TGI,SR leukemia,> 100 µM
same,TGI,SW-620 colon,> 100 µM
same,TGI,T-47D breast,> 100 µM
same,TGI,TK-10 renal,> 100 µM
same,TGI,U251 CNS,> 100 µM
same,TGI,UACC-257 melanoma,> 100 µM
same,TGI,UACC-62 melanoma,> 100 µM
same,TGI,UO-31 renal,> 100 µM
Cc1cn(C2CC(O)C(COC(N)=O)O2)c(=O)[nH]c1=O (stereo unspecified),TGI,786-0 renal,> 100 µM
same,TGI,A498 renal,> 100 µM
same,TGI,A549 NSCLC,> 100 µM
same,TGI,ACHN renal,> 100 µM
same,TGI,BT-549 breast,> 100 µM
same,TGI,CAKI-1 renal,> 100 µM
same,TGI,CCRF-CEM leukemia,> 100 µM
same,TGI,COLO 205 colon,> 100 µM
same,TGI,DU-145 prostate,> 100 µM
same,TGI,EKVX NSCLC,> 100 µM
same,TGI,HCT-116 colon,> 100 µM
same,TGI,HCT-15 colon,> 100 µM
same,TGI,HL-60(TB) leukemia,> 100 µM
same,TGI,HOP-62 NSCLC,> 100 µM
same,TGI,HOP-92 NSCLC,> 100 µM
same,TGI,HS 578T breast,> 100 µM
same,TGI,HT29 colon,> 100 µM
same,TGI,IGROV1 ovarian,> 100 µM
same,TGI,K-562 leukemia,> 100 µM
same,TGI,KM12 colon,> 100 µM
same,TGI,LOX IMVI melanoma,> 100 µM
same,TGI,M14 melanoma,> 100 µM
same,TGI,MALME-3M melanoma,> 100 µM
same,TGI,MCF7 breast,> 100 µM
same,TGI,MDA-MB-231 breast,> 100 µM
same,TGI,MDA-MB-435,> 100 µM
same,TGI,MDA-N,> 100 µM
same,TGI,MOLT-4 leukemia,> 100 µM
same,TGI,NCI-H226 lung,> 100 µM
same,TGI,NCI-H23 lung,> 100 µM
same,TGI,NCI-H460 lung,> 100 µM
same,TGI,NCI-H522 lung,> 100 µM
same,TGI,NCI/ADR-RES ovarian,> 100 µM
same,TGI,OVCAR-3 ovarian,> 100 µM
same,TGI,OVCAR-4 ovarian,> 100 µM
same,TGI,OVCAR-5 ovarian,> 100 µM
same,TGI,OVCAR-8 ovarian,> 100 µM
same,TGI,PC-3 prostate,> 100 µM
same,TGI,RPMI-8226 leukemia,> 100 µM
same,TGI,RXF 393 renal,> 100 µM
same,TGI,SF-268 CNS,> 100 µM
same,TGI,SF-295 CNS,> 100 µM
same,TGI,SF-539 CNS,> 100 µM
same,TGI,SK-MEL-2 melanoma,> 100 µM
same,TGI,SK-MEL-28 melanoma,> 100 µM
same,TGI,SK-MEL-5 melanoma,> 100 µM
same,TGI,SK-OV-3 ovarian,> 100 µM
same,TGI,SN12C renal,> 100 µM
same,TGI,SNB-19 CNS,> 100 µM
same,TGI,SNB-75 CNS,> 100 µM
same,TGI,SR leukemia,> 100 µM
same,TGI,SW-620 colon,> 100 µM
same,TGI,T-47D breast,> 100 µM
same,TGI,TK-10 renal,> 100 µM
same,TGI,U251 CNS,> 100 µM
same,TGI,UACC-257 melanoma,> 100 µM
same,TGI,UACC-62 melanoma,> 100 µM
same,TGI,UO-31 renal,> 100 µM
